Laboratory results taken from ChEMBL document CHEMBL4007388, “Synthesis and antiproliferative activity of monocationic arylthiophene derivatives” (Eur J Med Chem, 2017).

Tests used:
[1] = system: HCT-15; assay: Growth inhibition of human HCT15 cells incubated for 48 hrs by sulforhodamine B assay; format: functional; details: HCT-15, 48 h
[2] = system: DU-145; assay: Growth inhibition of human DU145 cells incubated for 48 hrs by sulforhodamine B assay; format: functional; details: DU-145, 48 h
[3] = system: OVCAR-3; assay: Growth inhibition of human OVCAR3 cells incubated for 48 hrs by sulforhodamine B assay; format: functional; details: OVCAR-3, 48 h
[4] = system: ACHN; assay: Growth inhibition of human ACHN cells incubated for 48 hrs by sulforhodamine B assay; format: functional
[5] = system: MCF7; assay: Growth inhibition of human MCF7 cells incubated for 48 hrs by sulforhodamine B assay; format: functional; details: MCF7, 48 h
[6] = system: HCT-116; assay: Growth inhibition of human HCT116 cells incubated for 48 hrs by sulforhodamine B assay; format: functional; details: HCT-116, 48 h
[7] = system: SK-MEL-28; assay: Growth inhibition of human SK-MEL-28 cells incubated for 48 hrs by sulforhodamine B assay; format: functional; details: SK-MEL-28, 48 h
[8] = system: A498; assay: Growth inhibition of human A498 cells incubated for 48 hrs by sulforhodamine B assay; format: functional; details: A498, 48 h
[9] = system: HL-60(TB); assay: Growth inhibition of human HL-60(TB) cells incubated for 48 hrs by sulforhodamine B assay; format: functional; details: HL-60, 48 h
[10] = system: Hs-578T; assay: Growth inhibition of human Hs 578T cells incubated for 48 hrs by sulforhodamine B assay; format: functional
[11] = system: SN12C; assay: Growth inhibition of human SN12C cells incubated for 48 hrs by sulforhodamine B assay; format: functional
[12] = system: WISH; assay: Cytotoxicity against human WISH cells assessed as reduction in cell viability after 24 hrs by MTT assay; format: cell-based
[13] = system: NCI-H226; assay: Growth inhibition of human NCI-H226 cells incubated for 48 hrs by sulforhodamine B assay; format: functional; details: NCI-H226, 48 h
[14] = system: COLO 205; assay: Growth inhibition of human COLO205 cells incubated for 48 hrs by sulforhodamine B assay; format: functional; details: COLO 205, 48 h
[15] = system: NCI-H522; assay: Growth inhibition of human NCI-H522 cells incubated for 48 hrs by sulforhodamine B assay; format: functional; details: NCI-H522, 48 h
[16] = system: NCI-H460; assay: Growth inhibition of human NCI-H460 cells incubated for 48 hrs by sulforhodamine B assay; format: functional; details: NCI-H460, 48 h
[17] = system: HOP-62; assay: Growth inhibition of human HOP62 cells incubated for 48 hrs by sulforhodamine B assay; format: functional; details: HOP-62, 48 h
[18] = system: CAKI-1; assay: Growth inhibition of human Caki1 cells incubated for 48 hrs by sulforhodamine B assay; format: functional; details: CAKI-1, 48 h
[19] = system: SR; assay: Growth inhibition of human SR cells incubated for 48 hrs by sulforhodamine B assay; format: functional
[20] = system: KM12; assay: Growth inhibition of human KM12 cells incubated for 48 hrs by sulforhodamine B assay; format: functional; details: KM12, 48 h
[21] = system: SW-620; assay: Growth inhibition of human SW620 cells incubated for 48 hrs by sulforhodamine B assay; format: functional; details: SW-620, 48 h
[22] = system: BT-549; assay: Growth inhibition of human BT549 cells incubated for 48 hrs by sulforhodamine B assay; format: functional; details: BT-549, 48 h
[23] = system: 786-0; assay: Growth inhibition of human 786-O cells incubated for 48 hrs by sulforhodamine B assay; format: functional; details: 786-0, 48 h
[24] = system: SK-MEL-5; assay: Growth inhibition of human SK-MEL-5 cells incubated for 48 hrs by sulforhodamine B assay; format: functional; details: SK-MEL-5, 48 h
[25] = system: TK-10; assay: Growth inhibition of human TK10 cells incubated for 48 hrs by sulforhodamine B assay; format: functional; details: TK-10, 48 h
[26] = system: Malme-3M; assay: Growth inhibition of human MALME-3M cells incubated for 48 hrs by sulforhodamine B assay; format: functional
[27] = Growth inhibition of human NCI60 cells at 10 uM after 48 hrs by SRB assay relative to control; values are per cent of control; details: NCI60, 48 h
[28] = system: WI-38; assay: Cytotoxicity against human WI38 cells assessed as reduction in cell viability after 24 hrs by MTT assay; format: cell-based; details: WI-38, 24 h
[29] = system: Escherichia coli; assay: Induction of Escherichia coli genomic DNA cleavage after 1 hr by agarose gel electrophoresis method
[30] = system: HOP-92; assay: Growth inhibition of human HOP92 cells incubated for 48 hrs by sulforhodamine B assay; format: functional; details: HOP-92, 48 h
[31] = system: OVCAR-5; assay: Growth inhibition of human OVCAR5 cells incubated for 48 hrs by sulforhodamine B assay; format: functional; details: OVCAR-5, 48 h
[32] = system: UACC-257; assay: Growth inhibition of human UACC257 cells incubated for 48 hrs by sulforhodamine B assay; format: functional; details: UACC-257, 48 h
[33] = system: SNB-19; assay: Growth inhibition of human SNB19 cells incubated for 48 hrs by sulforhodamine B assay; format: functional; details: SNB-19, 48 h
[34] = system: MOLT-4; assay: Growth inhibition of human MOLT4 cells incubated for 48 hrs by sulforhodamine B assay; format: functional; details: MOLT-4, 48 h
[35] = system: RPMI-8226; assay: Growth inhibition of human RPMI8226 cells incubated for 48 hrs by sulforhodamine B assay; format: functional; details: RPMI-8226, 48 h
[36] = system: NCI-H23; assay: Growth inhibition of human NCI-H23 cells incubated for 48 hrs by sulforhodamine B assay; format: functional; details: NCI-H23, 48 h
[37] = system: OVCAR-8; assay: Growth inhibition of human OVCAR8 cells incubated for 48 hrs by sulforhodamine B assay; format: functional; details: OVCAR-8, 48 h
[38] = system: SNB-75; assay: Growth inhibition of human SNB75 cells incubated for 48 hrs by sulforhodamine B assay; format: functional; details: SNB-75, 48 h
[39] = system: UACC-62; assay: Growth inhibition of human UACC62 cells incubated for 48 hrs by sulforhodamine B assay; format: functional; details: UACC-62, 48 h
[40] = system: M14; assay: Growth inhibition of human M14 cells incubated for 48 hrs by sulforhodamine B assay; format: functional; details: M14, 48 h
[41] = system: SF-539; assay: Growth inhibition of human SF539 cells incubated for 48 hrs by sulforhodamine B assay; format: functional; details: SF-539, 48 h
[42] = system: IGROV-1; assay: Growth inhibition of human IGROV1 cells incubated for 48 hrs by sulforhodamine B assay; format: functional; details: IGROV-1, 48 h
[43] = system: UO-31; assay: Growth inhibition of human UO31 cells incubated for 48 hrs by sulforhodamine B assay; format: functional; details: UO-31, 48 h
[44] = system: RXF 393; assay: Growth inhibition of human RXF393 cells incubated for 48 hrs by sulforhodamine B assay; format: functional; details: RXF 393, 48 h
[45] = system: CCRF-CEM; assay: Growth inhibition of human CCRF-CEM cells incubated for 48 hrs by sulforhodamine B assay; format: functional
[46] = system: SF-268; assay: Growth inhibition of human SF268 cells incubated for 48 hrs by sulforhodamine B assay; format: functional; details: SF-268, 48 h
[47] = system: MDA-MB-468; assay: Growth inhibition of human MDA-MB-468 cells incubated for 48 hrs by sulforhodamine B assay; format: functional; details: MDA-MB-468, 48 h
[48] = system: SK-OV-3; assay: Growth inhibition of human SKOV3 cells incubated for 48 hrs by sulforhodamine B assay; format: functional; details: SK-OV-3, 48 h

## COc1ccc(-c2ccc(-c3ccc(C(=N)N)c(F)c3)s2)cc1
[1]
  GI50: 2.58 µM
[2]
  GI50: 6.25 µM
[3]
  GI50: 9.77 µM
[4]
  GI50: 4.24 µM
[5]
  GI50: 2.08 µM
[6]
  GI50: 3.04 µM
[7]
  GI50: 2.31 µM
[8]
  GI50: 6.58 µM
[9]
  GI50: 2.19 µM
[10]
  GI50: 4.82 µM
[11]
  GI50: 5.97 µM
[12]
  IC50: 112 µM
[13]
  GI50: 14.4 µM
[14]
  GI50: 1.78 µM
[15]
  GI50: 3.73 µM
[16]
  GI50: 2.43 µM
[17]
  GI50: 10.4 µM
[18]
  GI50: 3.94 µM
[19]
  GI50: 3.17 µM
[20]
  GI50: 3.16 µM
[21]
  GI50: 1.92 µM
[22]
  GI50: 5.9 µM
[23]
  GI50: 3.93 µM
[24]
  GI50: 2.67 µM
[25]
  GI50: 4.33 µM
[26]
  GI50: 2.15 µM
[27]
  growth percent at 10 µM: -80.5%
[28]
  IC50: 104 µM
[29]
  Activity: Dose-dependent effect
[30]
  GI50: 1.38 µM
[31]
  GI50: 4.98 µM
[32]
  GI50: 1.84 µM
[33]
  GI50: 9.44 µM
[34]
  GI50: 3.26 µM
[35]
  GI50: 2.51 µM
[36]
  GI50: 11 µM
[37]
  GI50: 8.22 µM
[38]
  GI50: 10.7 µM
[39]
  GI50: 1.82 µM
[40]
  GI50: 1.9 µM
[41]
  GI50: 8.96 µM
[42]
  GI50: 4.38 µM
[43]
  GI50: 3.17 µM
[44]
  GI50: 4.68 µM
[45]
  GI50: 3.11 µM
[46]
  GI50: 4.85 µM
[47]
  GI50: 1.39 µM
[48]
  GI50: 9.21 µM

## N=C(N)c1ccc(-c2ccc(-c3ccc(Cl)cc3)s2)cc1F
[1]
  GI50: 0.172 µM
[2]
  GI50: 0.43 µM
[3]
  GI50: 0.268 µM
[4]
  GI50: 0.203 µM
[5]
  GI50: 0.168 µM
[6]
  GI50: 0.171 µM
[7]
  GI50: 0.205 µM
[8]
  GI50: 1.38 µM
[9]
  GI50: 0.212 µM
[10]
  GI50: 0.726 µM
[11]
  GI50: 0.517 µM
[12]
  IC50: 64.2 µM
[13]
  GI50: 2.03 µM
[14]
  GI50: 0.2 µM
[15]
  GI50: 0.194 µM
[16]
  GI50: 0.207 µM
[17]
  GI50: 1.48 µM
[18]
  GI50: 0.173 µM
[19]
  GI50: 0.218 µM
[20]
  GI50: 0.226 µM
[21]
  GI50: 0.186 µM
[22]
  GI50: 1.5 µM
[23]
  GI50: 0.192 µM
[24]
  GI50: 1.27 µM
[25]
  GI50: 1.74 µM
[26]
  GI50: 0.49 µM
[27]
  growth percent at 10 µM: -67.3%
[28]
  IC50: 53.1 µM
[29]
  Activity: Dose-dependent effect
[30]
  GI50: 0.589 µM
[31]
  GI50: 0.248 µM
[32]
  GI50: 1.62 µM
[33]
  GI50: 0.341 µM
[34]
  GI50: 0.243 µM
[35]
  GI50: 0.248 µM
[36]
  GI50: 1.15 µM
[37]
  GI50: 0.983 µM
[38]
  GI50: 0.165 µM
[39]
  GI50: 0.218 µM
[40]
  GI50: 0.179 µM
[41]
  GI50: 0.206 µM
[42]
  GI50: 0.611 µM
[43]
  GI50: 1.72 µM
[44]
  GI50: 0.187 µM
[45]
  GI50: 0.194 µM
[46]
  GI50: 0.197 µM
[47]
  GI50: 0.215 µM
[48]
  GI50: 1.14 µM

## COc1cc(OC)cc(-c2ccc(-c3ccc(C(=N)N)cc3)s2)c1
[1]
  GI50: 1.22 µM
[2]
  GI50: 1.77 µM
[3]
  GI50: 1.95 µM
[4]
  GI50: 1.77 µM
[5]
  GI50: 1.22 µM
[6]
  GI50: 1.76 µM
[7]
  GI50: 1.79 µM
[8]
  GI50: 1.73 µM
[9]
  GI50: 1.9 µM
[10]
  GI50: 1.99 µM
[11]
  GI50: 1.97 µM
[12]
  IC50: 87.2 µM
[13]
  GI50: 2.23 µM
[14]
  GI50: 1.33 µM
[15]
  GI50: 1.96 µM
[16]
  GI50: 1.84 µM
[17]
  GI50: 1.9 µM
[18]
  GI50: 1.81 µM
[19]
  GI50: 0.231 µM
[20]
  GI50: 1.84 µM
[21]
  GI50: 1.95 µM
[22]
  GI50: 1.8 µM
[23]
  GI50: 1.87 µM
[24]
  GI50: 1.81 µM
[25]
  GI50: 1.97 µM
[26]
  GI50: 1.84 µM
[27]
  growth percent at 10 µM: -74.1%
[28]
  IC50: 73.9 µM
[29]
  Activity: Dose-dependent effect
[30]
  GI50: 1.75 µM
[31]
  GI50: 1.9 µM
[32]
  GI50: 2.76 µM
[33]
  GI50: 1.97 µM
[34]
  GI50: 1.65 µM
[35]
  GI50: 1.46 µM
[36]
  GI50: 1.92 µM
[37]
  GI50: 2.48 µM
[38]
  GI50: 1.58 µM
[39]
  GI50: 1.87 µM
[40]
  GI50: 1.73 µM
[41]
  GI50: 1.75 µM
[42]
  GI50: 2.11 µM
[43]
  GI50: 1.77 µM
[44]
  GI50: 1.81 µM
[45]
  GI50: 1.88 µM
[46]
  GI50: 1.85 µM
[47]
  GI50: 1.68 µM
[48]
  GI50: 2.08 µM
